Experimental data published in PubChem BioAssay (NCI).
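The compound was tested at five concentrations on cells cultured in 96-well plates, with a 48-hour exposure period. GI50 marks 50% less growth. The concentration for full growth arrest is given as TGI.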

What was measured:
Experiment in all cases: DTP human tumour cell line panel, 48 h
LOX IMVI melanoma = tested on: LOX IMVI melanoma
HCT-116 colon = tested on: HCT-116 colon
MALME-3M melanoma = tested on: MALME-3M melanoma
IGROV1 ovarian = tested on: IGROV1 ovarian
A549 NSCLC = tested on: A549 NSCLC
UACC-62 melanoma = tested on: UACC-62 melanoma
HCT-15 colon = tested on: HCT-15 colon
KM12 colon = tested on: KM12 colon
ACHN renal = tested on: ACHN renal
OVCAR-4 ovarian = tested on: OVCAR-4 ovarian

CC(C)N(C(=O)C12C3C4C5(C#N)C3C1(I)C5C42I)C(C)C (stereo not given)
TGI (LOX IMVI melanoma): > 66.1 µM
TGI (HCT-116 colon): 34.3 µM
TGI (MALME-3M melanoma): > 100 µM
TGI (IGROV1 ovarian): > 100 µM
TGI (A549 NSCLC): > 100 µM
TGI (UACC-62 melanoma): > 100 µM
TGI (HCT-15 colon): > 57.7 µM
TGI (KM12 colon): > 100 µM
TGI (ACHN renal): > 100 µM
TGI (OVCAR-4 ovarian): > 77.4 µM

COc1cc2oc(=O)ccc2cc1C1OC(=O)C2OC21C (stereo not given)
TGI (LOX IMVI melanoma): > 100 µM
TGI (HCT-116 colon): > 100 µM
TGI (MALME-3M melanoma): > 100 µM
TGI (IGROV1 ovarian): > 100 µM
TGI (A549 NSCLC): > 100 µM
TGI (UACC-62 melanoma): > 100 µM
TGI (HCT-15 colon): > 100 µM
TGI (KM12 colon): > 100 µM
TGI (ACHN renal): > 100 µM
TGI (OVCAR-4 ovarian): > 100 µM

OCc1cn(Cc2cccc(Cl)c2)c2ccccc12
GI50 (LOX IMVI melanoma): 6.71 µM
TGI (LOX IMVI melanoma): 25.8 µM
GI50 (HCT-116 colon): < 0.0163 µM
TGI (HCT-116 colon): 13.5 µM
GI50 (MALME-3M melanoma): 12.3 µM
TGI (MALME-3M melanoma): 30.6 µM
GI50 (IGROV1 ovarian): < 0.0271 µM
TGI (IGROV1 ovarian): 0.507 µM
GI50 (A549 NSCLC): 15 µM
TGI (A549 NSCLC): 65.8 µM
GI50 (UACC-62 melanoma): < 0.0199 µM
TGI (UACC-62 melanoma): 1.5 µM
GI50 (HCT-15 colon): 5.79 µM
TGI (HCT-15 colon): 43.8 µM
GI50 (KM12 colon): 16.2 µM
TGI (KM12 colon): 33.8 µM
GI50 (ACHN renal): 5.63 µM
TGI (ACHN renal): 69.2 µM
GI50 (OVCAR-4 ovarian): 0.107 µM
TGI (OVCAR-4 ovarian): 11.3 µM

CC(C)(C)N1CCC1C(N)=O (stereo not given)
GI50 (LOX IMVI melanoma): > 100 µM
TGI (LOX IMVI melanoma): > 100 µM
GI50 (HCT-116 colon): > 100 µM
TGI (HCT-116 colon): > 100 µM
GI50 (MALME-3M melanoma): > 100 µM
TGI (MALME-3M melanoma): > 100 µM
GI50 (IGROV1 ovarian): > 100 µM
TGI (IGROV1 ovarian): > 100 µM
GI50 (A549 NSCLC): > 100 µM
TGI (A549 NSCLC): > 100 µM
GI50 (UACC-62 melanoma): > 100 µM
TGI (UACC-62 melanoma): > 100 µM
GI50 (HCT-15 colon): > 100 µM
TGI (HCT-15 colon): > 100 µM
GI50 (KM12 colon): > 100 µM
TGI (KM12 colon): > 100 µM
GI50 (ACHN renal): > 100 µM
TGI (ACHN renal): > 100 µM
GI50 (OVCAR-4 ovarian): > 100 µM
TGI (OVCAR-4 ovarian): > 100 µM

CC(=O)OC[C@H]1O[C@@H](n2ccc(=O)[nH]c2=O)[C@H](OC(C)=O)[C@@H]1OC(C)=O
GI50 (LOX IMVI melanoma): > 100 µM
TGI (LOX IMVI melanoma): > 100 µM
GI50 (HCT-116 colon): > 100 µM
TGI (HCT-116 colon): > 100 µM
GI50 (MALME-3M melanoma): > 100 µM
TGI (MALME-3M melanoma): > 100 µM
GI50 (IGROV1 ovarian): > 100 µM
TGI (IGROV1 ovarian): > 100 µM
GI50 (A549 NSCLC): > 100 µM
TGI (A549 NSCLC): > 100 µM
GI50 (UACC-62 melanoma): > 100 µM
TGI (UACC-62 melanoma): > 100 µM
GI50 (HCT-15 colon): > 100 µM
TGI (HCT-15 colon): > 100 µM
GI50 (KM12 colon): > 100 µM
TGI (KM12 colon): > 100 µM
GI50 (ACHN renal): > 100 µM
TGI (ACHN renal): > 100 µM
GI50 (OVCAR-4 ovarian): > 100 µM
TGI (OVCAR-4 ovarian): > 100 µM

CC[C@]1(O)CC2CN(CCc3c([nH]c4ccccc34)[C@@](C(=O)OC)(c3cc4c(cc3OC)N(C)[C@H]3[C@@](O)(C(=O)OC)[C@H](OC(C)=O)[C@]5(CC)C=CCN6CC[C@]43[C@@H]65)C2)C1 (stereo not given in full)
GI50 (LOX IMVI melanoma): < 0.005 µM
TGI (LOX IMVI melanoma): 8.01 µM
GI50 (HCT-116 colon): < 0.005 µM
TGI (HCT-116 colon): 0.269 µM
GI50 (MALME-3M melanoma): < 0.005 µM
TGI (MALME-3M melanoma): 11.8 µM
GI50 (IGROV1 ovarian): 0.00517 µM
TGI (IGROV1 ovarian): > 30 µM
GI50 (A549 NSCLC): < 0.005 µM
TGI (A549 NSCLC): > 50 µM
GI50 (UACC-62 melanoma): < 0.005 µM
TGI (UACC-62 melanoma): 8.91 µM
GI50 (HCT-15 colon): 0.0588 µM
TGI (HCT-15 colon): > 21.3 µM
GI50 (KM12 colon): < 0.005 µM
TGI (KM12 colon): 0.141 µM
GI50 (ACHN renal): 0.076 µM
TGI (ACHN renal): > 50 µM
GI50 (OVCAR-4 ovarian): 0.0303 µM
TGI (OVCAR-4 ovarian): > 50 µM

O=C(O)CNc1c2ccccc2nc2ccccc12
TGI (LOX IMVI melanoma): > 100 µM
TGI (HCT-116 colon): > 100 µM
TGI (MALME-3M melanoma): > 100 µM
TGI (IGROV1 ovarian): > 100 µM
TGI (A549 NSCLC): > 100 µM
TGI (UACC-62 melanoma): > 100 µM
TGI (HCT-15 colon): > 100 µM
TGI (KM12 colon): > 100 µM
TGI (ACHN renal): > 100 µM
TGI (OVCAR-4 ovarian): > 100 µM

CC1=C(/C=C/C(C)=C\C=C\C(C)=C\C(=O)Nc2ccc3c(c2)OCO3)C(C)(C)CCC1
GI50 (LOX IMVI melanoma): 16.8 µM
TGI (LOX IMVI melanoma): > 100 µM
GI50 (HCT-116 colon): 29.5 µM
TGI (HCT-116 colon): > 100 µM
GI50 (MALME-3M melanoma): 7.93 µM
TGI (MALME-3M melanoma): > 100 µM
GI50 (IGROV1 ovarian): > 100 µM
TGI (IGROV1 ovarian): > 100 µM
GI50 (A549 NSCLC): 84.8 µM
TGI (A549 NSCLC): > 100 µM
GI50 (UACC-62 melanoma): > 100 µM
TGI (UACC-62 melanoma): > 100 µM
GI50 (HCT-15 colon): 36.4 µM
TGI (HCT-15 colon): > 100 µM
GI50 (KM12 colon): 39.2 µM
TGI (KM12 colon): > 100 µM
GI50 (ACHN renal): 89.1 µM
TGI (ACHN renal): > 100 µM
GI50 (OVCAR-4 ovarian): 21 µM
TGI (OVCAR-4 ovarian): > 100 µM

C/C(=N/S(=O)(=O)c1ccc(Cl)c(Cl)c1)OCC(C)(C)C
TGI (LOX IMVI melanoma): > 100 µM
TGI (HCT-116 colon): > 100 µM
TGI (MALME-3M melanoma): > 100 µM
TGI (IGROV1 ovarian): > 100 µM
TGI (A549 NSCLC): > 100 µM
TGI (UACC-62 melanoma): > 100 µM
TGI (HCT-15 colon): > 100 µM
TGI (KM12 colon): > 100 µM
TGI (ACHN renal): > 100 µM
TGI (OVCAR-4 ovarian): > 100 µM

COc1ccc(/C=C/C(=O)c2cc3c(N)c(C(=O)Nc4ccccc4Cl)sc3nc2C)cc1
GI50 (LOX IMVI melanoma): 8.11 µM
TGI (LOX IMVI melanoma): > 50 µM
GI50 (HCT-116 colon): 1.11 µM
TGI (HCT-116 colon): > 50 µM
GI50 (MALME-3M melanoma): 0.736 µM
TGI (MALME-3M melanoma): 9.21 µM
GI50 (IGROV1 ovarian): 2.72 µM
TGI (IGROV1 ovarian): > 50 µM
GI50 (A549 NSCLC): 2.14 µM
TGI (A549 NSCLC): > 50 µM
GI50 (UACC-62 melanoma): 0.391 µM
TGI (UACC-62 melanoma): 8.93 µM
GI50 (HCT-15 colon): 2.96 µM
TGI (HCT-15 colon): > 50 µM
GI50 (KM12 colon): 3.48 µM
TGI (KM12 colon): > 50 µM
GI50 (ACHN renal): 1.74 µM
TGI (ACHN renal): 10.8 µM
GI50 (OVCAR-4 ovarian): 1.7 µM
TGI (OVCAR-4 ovarian): 46 µM

CC(CN(CP(=O)([O-])[O-])CP(=O)([O-])[O-])N(CP(=O)([O-])[O-])CP(=O)([O-])[O-].N.N.[Pt+2] (stereo not given)
GI50 (LOX IMVI melanoma): > 100 µM
TGI (LOX IMVI melanoma): > 100 µM
GI50 (HCT-116 colon): > 100 µM
TGI (HCT-116 colon): > 100 µM
GI50 (MALME-3M melanoma): > 100 µM
TGI (MALME-3M melanoma): > 100 µM
GI50 (IGROV1 ovarian): > 100 µM
TGI (IGROV1 ovarian): > 100 µM
GI50 (A549 NSCLC): > 100 µM
TGI (A549 NSCLC): > 100 µM
GI50 (UACC-62 melanoma): > 100 µM
TGI (UACC-62 melanoma): > 100 µM
GI50 (HCT-15 colon): > 100 µM
TGI (HCT-15 colon): > 100 µM
GI50 (KM12 colon): > 100 µM
TGI (KM12 colon): > 100 µM
GI50 (ACHN renal): > 100 µM
TGI (ACHN renal): > 100 µM
GI50 (OVCAR-4 ovarian): > 100 µM
TGI (OVCAR-4 ovarian): > 100 µM

CN(C)CCCn1c2c(c3cnccc3c1=O)C(=O)c1ccccc1-2
GI50 (LOX IMVI melanoma): 0.303 µM
TGI (LOX IMVI melanoma): 4.18 µM
GI50 (HCT-116 colon): 0.245 µM
TGI (HCT-116 colon): 11.7 µM
GI50 (MALME-3M melanoma): 0.287 µM
TGI (MALME-3M melanoma): 1.05 µM
GI50 (IGROV1 ovarian): 0.411 µM
TGI (IGROV1 ovarian): 3.75 µM
GI50 (A549 NSCLC): 0.676 µM
TGI (A549 NSCLC): 3.86 µM
GI50 (UACC-62 melanoma): 0.309 µM
TGI (UACC-62 melanoma): 1.46 µM
GI50 (HCT-15 colon): 0.318 µM
TGI (HCT-15 colon): 10.2 µM
GI50 (KM12 colon): 0.488 µM
TGI (KM12 colon): 9.58 µM
GI50 (ACHN renal): 0.145 µM
TGI (ACHN renal): 3.63 µM
GI50 (OVCAR-4 ovarian): 0.601 µM
TGI (OVCAR-4 ovarian): 8.89 µM

N#CC(NNC(=O)c1ccccc1O)c1ccc(O)cc1 (stereo not given)
TGI (LOX IMVI melanoma): > 100 µM
TGI (HCT-116 colon): > 100 µM
TGI (MALME-3M melanoma): > 100 µM
TGI (IGROV1 ovarian): > 100 µM
TGI (A549 NSCLC): > 100 µM
TGI (UACC-62 melanoma): 5.97 µM
TGI (HCT-15 colon): > 100 µM
TGI (KM12 colon): > 100 µM
TGI (ACHN renal): > 100 µM
TGI (OVCAR-4 ovarian): > 100 µM
